Measurements from the kinase profiling compilation of Christmann-Franck et al. (2016).

Assays:
Assay in all cases: KINOMEscan competition binding
Details in all cases: compound 10.0 µM
PDGFRA (human) = PDGFRA (human) (UniProt P16234)
SLK (human) = SLK (human) (UniProt Q9H2G2)
[1] = test system: ABL1 (human), P00519 [M351T]
PLK1 (human) = PLK1 (human) (UniProt P53350)
CDK9 (human) = CDK9 (human) (UniProt P50750)
CSK (human) = CSK (human) (UniProt P41240)
ADCK4 (human) = ADCK4 (human) (UniProt Q96D53)
PIK3C2B (human) = PIK3C2B (human) (UniProt O00750)
[2] = test system: RET (human), P07949 [V804L]
RET (human), P07949 [V804L], sequence (P07949 whole entry V804L, looked up): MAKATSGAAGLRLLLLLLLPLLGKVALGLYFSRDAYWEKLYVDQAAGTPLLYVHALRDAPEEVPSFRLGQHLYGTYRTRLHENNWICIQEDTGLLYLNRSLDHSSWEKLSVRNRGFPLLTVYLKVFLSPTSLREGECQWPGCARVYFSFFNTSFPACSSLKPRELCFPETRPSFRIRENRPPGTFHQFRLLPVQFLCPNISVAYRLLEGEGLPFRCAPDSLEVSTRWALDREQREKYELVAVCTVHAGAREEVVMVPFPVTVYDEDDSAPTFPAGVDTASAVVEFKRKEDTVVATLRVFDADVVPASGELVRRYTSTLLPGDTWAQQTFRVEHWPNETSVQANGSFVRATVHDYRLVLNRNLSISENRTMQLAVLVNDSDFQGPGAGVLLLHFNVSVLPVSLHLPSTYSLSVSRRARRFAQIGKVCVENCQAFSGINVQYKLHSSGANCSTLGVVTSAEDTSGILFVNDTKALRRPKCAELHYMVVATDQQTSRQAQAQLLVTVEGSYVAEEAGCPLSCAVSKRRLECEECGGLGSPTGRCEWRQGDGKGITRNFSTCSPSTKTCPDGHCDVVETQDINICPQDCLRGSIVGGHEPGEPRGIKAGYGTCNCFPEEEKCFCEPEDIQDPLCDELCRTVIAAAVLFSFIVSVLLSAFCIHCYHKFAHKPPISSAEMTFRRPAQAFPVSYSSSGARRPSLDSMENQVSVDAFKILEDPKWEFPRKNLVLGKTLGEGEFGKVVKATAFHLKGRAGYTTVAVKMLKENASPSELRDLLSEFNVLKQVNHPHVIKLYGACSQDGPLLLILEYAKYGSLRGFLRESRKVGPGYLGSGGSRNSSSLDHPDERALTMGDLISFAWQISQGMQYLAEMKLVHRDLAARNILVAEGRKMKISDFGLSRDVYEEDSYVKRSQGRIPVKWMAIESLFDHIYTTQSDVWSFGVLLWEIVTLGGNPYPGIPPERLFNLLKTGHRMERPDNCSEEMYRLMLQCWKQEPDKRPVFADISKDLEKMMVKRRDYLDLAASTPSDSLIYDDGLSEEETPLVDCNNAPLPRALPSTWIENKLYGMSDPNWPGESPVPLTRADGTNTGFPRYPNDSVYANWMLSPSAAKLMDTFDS

CAMK2D (human) = CAMK2D (human) (UniProt Q13557)
MAPK11 (human) = MAPK11 (human) (UniProt Q15759)
WEE1 (human) = WEE1 (human) (UniProt P30291)
RPS6KA3 KD1 (human) = RPS6KA3 KD1 (human) (UniProt P51812)
EPHA4 (human) = EPHA4 (human) (UniProt P54764)
PRKCE (human) = PRKCE (human) (UniProt Q02156)
LATS2 (human) = LATS2 (human) (UniProt Q9NRM7)
FER (human) = FER (human) (UniProt P16591)
FYN (human) = FYN (human) (UniProt P06241)
ZAP70 (human) = ZAP70 (human) (UniProt P43403)
ZAP70 (human), sequence (P43403 whole entry, looked up): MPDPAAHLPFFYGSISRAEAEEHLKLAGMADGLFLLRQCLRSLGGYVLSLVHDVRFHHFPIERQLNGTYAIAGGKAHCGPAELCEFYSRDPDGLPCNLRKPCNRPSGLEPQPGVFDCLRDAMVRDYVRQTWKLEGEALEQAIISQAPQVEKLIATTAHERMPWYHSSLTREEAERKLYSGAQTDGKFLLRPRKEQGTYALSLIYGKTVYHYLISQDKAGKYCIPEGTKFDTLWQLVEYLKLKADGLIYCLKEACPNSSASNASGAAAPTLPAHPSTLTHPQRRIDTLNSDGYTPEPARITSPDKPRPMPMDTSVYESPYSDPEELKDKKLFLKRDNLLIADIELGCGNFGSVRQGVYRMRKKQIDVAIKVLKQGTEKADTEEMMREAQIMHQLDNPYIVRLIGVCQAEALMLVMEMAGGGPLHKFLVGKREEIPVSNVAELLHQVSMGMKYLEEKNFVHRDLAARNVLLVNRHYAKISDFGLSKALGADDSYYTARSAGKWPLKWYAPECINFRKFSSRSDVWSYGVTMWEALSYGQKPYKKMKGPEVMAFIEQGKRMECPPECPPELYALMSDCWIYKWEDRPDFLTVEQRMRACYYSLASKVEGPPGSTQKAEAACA

MAPKAPK5 (human) = MAPKAPK5 (human) (UniProt Q8IW41)
MAP3K9 (human) = MAP3K9 (human) (UniProt P80192)
[3] = test system: PIK3CA (human), P42336 [E545K]
CAMK1 (human) = CAMK1 (human) (UniProt Q14012)
BLK (human) = BLK (human) (UniProt P51451)
PDPK1 (human) = PDPK1 (human) (UniProt O15530)
PRKX (human) = PRKX (human) (UniProt P51817)
CDC42BPA (human) = CDC42BPA (human) (UniProt Q5VT25)
CDK11A (human) = CDK11A (human) (UniProt Q9UQ88)
MAP2K2 (human) = MAP2K2 (human) (UniProt P36507)
AXL (human) = AXL (human) (UniProt P30530)
AXL (human), sequence (P30530 whole entry, looked up): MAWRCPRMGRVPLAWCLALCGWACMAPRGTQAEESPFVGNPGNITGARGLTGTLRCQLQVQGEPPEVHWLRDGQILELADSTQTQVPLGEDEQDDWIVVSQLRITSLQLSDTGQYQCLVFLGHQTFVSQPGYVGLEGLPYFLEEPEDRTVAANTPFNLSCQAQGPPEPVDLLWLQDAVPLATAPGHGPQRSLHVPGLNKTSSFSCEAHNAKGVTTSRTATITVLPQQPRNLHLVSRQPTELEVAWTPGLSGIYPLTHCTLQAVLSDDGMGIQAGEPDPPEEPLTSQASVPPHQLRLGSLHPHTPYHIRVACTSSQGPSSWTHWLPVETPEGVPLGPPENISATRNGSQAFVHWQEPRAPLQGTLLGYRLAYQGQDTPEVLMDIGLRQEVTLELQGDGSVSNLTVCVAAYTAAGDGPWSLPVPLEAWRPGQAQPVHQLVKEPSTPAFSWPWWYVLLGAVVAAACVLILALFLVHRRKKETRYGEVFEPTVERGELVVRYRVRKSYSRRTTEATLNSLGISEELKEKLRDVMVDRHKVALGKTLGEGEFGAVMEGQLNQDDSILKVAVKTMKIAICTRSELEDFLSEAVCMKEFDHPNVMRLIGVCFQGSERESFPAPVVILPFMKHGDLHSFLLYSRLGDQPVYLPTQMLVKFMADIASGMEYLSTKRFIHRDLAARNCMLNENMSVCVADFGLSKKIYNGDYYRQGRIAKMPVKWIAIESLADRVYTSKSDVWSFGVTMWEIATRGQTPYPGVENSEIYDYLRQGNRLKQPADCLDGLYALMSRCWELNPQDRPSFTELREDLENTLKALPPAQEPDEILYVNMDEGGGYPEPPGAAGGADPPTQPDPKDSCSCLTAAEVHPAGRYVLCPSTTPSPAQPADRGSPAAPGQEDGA

FGFR1 (human) = FGFR1 (human) (UniProt P11362)
TNNI3K (human) = TNNI3K (human) (UniProt Q59H18)
EPHB4 (human) = EPHB4 (human) (UniProt P54760)
[4] = test system: ABL1 (human), P00519 [Y253F]
ACVR1B (human) = ACVR1B (human) (UniProt P36896)
MARK2 (human) = MARK2 (human) (UniProt Q7KZI7)
MAPKAPK2 (human) = MAPKAPK2 (human) (UniProt P49137)
CDK8 (human) = CDK8 (human) (UniProt P49336)
CDK8 (human), sequence (P49336 whole entry, looked up): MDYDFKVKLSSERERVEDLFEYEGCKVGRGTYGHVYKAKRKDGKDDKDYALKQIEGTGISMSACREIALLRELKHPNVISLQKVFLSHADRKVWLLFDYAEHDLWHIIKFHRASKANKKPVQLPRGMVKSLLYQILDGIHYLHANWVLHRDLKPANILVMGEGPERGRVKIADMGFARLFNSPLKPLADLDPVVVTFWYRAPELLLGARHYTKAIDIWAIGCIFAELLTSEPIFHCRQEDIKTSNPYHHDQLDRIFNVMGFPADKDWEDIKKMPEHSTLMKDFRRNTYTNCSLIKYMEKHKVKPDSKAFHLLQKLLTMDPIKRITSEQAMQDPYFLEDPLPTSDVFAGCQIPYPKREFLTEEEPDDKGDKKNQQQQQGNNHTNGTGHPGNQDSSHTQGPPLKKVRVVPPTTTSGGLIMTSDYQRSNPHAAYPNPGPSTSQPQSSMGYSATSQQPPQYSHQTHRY

MAPK9 (human) = MAPK9 (human) (UniProt P45984)
[5] = test system: RET (human), P07949 [V804M]
RET (human), P07949 [V804M], sequence (P07949 whole entry V804M, looked up): as the sequence (P07949 whole entry V804L, looked up) above, with L804M counted along it

RPS6KA1 KD1 (human) = RPS6KA1 KD1 (human) (UniProt Q15418)
PRKAA1 (human) = PRKAA1 (human) (UniProt Q13131)

PLK1 (human), sequence (P53350 whole entry, looked up): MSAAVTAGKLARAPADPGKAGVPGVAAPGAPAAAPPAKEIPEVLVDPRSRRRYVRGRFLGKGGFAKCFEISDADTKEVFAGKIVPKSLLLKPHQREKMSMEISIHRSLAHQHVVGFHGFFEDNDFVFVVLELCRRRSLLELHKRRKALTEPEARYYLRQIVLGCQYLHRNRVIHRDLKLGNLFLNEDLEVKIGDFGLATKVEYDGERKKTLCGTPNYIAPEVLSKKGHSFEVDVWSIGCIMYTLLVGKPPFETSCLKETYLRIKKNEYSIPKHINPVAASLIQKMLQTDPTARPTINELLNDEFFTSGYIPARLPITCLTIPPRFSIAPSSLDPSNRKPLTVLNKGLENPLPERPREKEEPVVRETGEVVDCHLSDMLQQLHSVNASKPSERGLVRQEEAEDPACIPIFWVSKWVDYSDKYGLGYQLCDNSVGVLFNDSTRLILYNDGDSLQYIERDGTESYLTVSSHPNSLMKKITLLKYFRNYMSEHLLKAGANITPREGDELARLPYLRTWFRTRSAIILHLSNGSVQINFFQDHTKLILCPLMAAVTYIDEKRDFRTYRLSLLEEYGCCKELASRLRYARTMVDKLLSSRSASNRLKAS
SLK (human), sequence (Q9H2G2 whole entry, looked up): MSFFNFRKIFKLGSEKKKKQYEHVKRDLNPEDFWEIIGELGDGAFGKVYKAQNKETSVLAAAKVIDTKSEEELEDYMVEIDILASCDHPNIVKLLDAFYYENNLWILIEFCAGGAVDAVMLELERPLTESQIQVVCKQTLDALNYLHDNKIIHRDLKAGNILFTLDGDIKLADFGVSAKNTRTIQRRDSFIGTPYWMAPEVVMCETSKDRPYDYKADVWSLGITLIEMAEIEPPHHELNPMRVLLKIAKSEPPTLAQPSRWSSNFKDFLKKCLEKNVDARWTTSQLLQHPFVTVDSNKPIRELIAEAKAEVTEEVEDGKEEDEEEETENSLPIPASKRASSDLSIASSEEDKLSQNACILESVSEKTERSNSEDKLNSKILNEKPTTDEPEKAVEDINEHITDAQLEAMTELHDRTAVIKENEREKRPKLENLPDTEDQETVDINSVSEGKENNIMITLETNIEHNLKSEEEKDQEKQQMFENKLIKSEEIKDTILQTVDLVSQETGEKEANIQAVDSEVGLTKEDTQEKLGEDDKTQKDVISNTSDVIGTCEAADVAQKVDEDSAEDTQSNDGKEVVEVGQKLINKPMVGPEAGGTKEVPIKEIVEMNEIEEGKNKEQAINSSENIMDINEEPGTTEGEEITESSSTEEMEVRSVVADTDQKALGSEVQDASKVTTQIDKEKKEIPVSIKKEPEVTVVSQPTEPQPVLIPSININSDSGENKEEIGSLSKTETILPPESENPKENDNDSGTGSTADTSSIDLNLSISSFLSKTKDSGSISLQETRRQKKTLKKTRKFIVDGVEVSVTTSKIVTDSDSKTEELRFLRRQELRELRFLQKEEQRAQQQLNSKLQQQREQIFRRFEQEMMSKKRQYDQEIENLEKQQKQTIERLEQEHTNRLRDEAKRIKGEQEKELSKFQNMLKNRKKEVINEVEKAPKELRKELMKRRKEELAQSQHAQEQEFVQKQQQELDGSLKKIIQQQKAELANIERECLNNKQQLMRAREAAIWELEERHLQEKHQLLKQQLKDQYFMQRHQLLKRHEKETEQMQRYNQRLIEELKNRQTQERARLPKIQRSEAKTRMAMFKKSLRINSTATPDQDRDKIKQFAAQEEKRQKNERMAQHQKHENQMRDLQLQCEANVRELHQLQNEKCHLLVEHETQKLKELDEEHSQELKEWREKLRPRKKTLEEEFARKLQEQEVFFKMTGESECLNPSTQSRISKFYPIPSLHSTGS

CS(=O)(=O)Nc1ccc(-c2ncc(/C=C3\SC(=N)NC3=O)s2)cc1
kinase still bound, per cent of control (PDGFRA (human)): 26%
kinase still bound, per cent of control (SLK (human)): 1.4%
kinase still bound, per cent of control [1]: 26%

Nc1cccc(-c2cc(/C=C3\SC(=O)NC3=O)c[nH]c2=O)c1
kinase still bound, per cent of control (PLK1 (human)): 1.8%
kinase still bound, per cent of control (CDK9 (human)): 25%

CN1CCN(c2ccc(C(=O)Nc3ncc4c(n3)N(C)c3ccccc3C(=O)N4C)cc2)CC1
kinase still bound, per cent of control (CSK (human)): 100%
kinase still bound, per cent of control (ADCK4 (human)): 100%
kinase still bound, per cent of control (PIK3C2B (human)): 99%
kinase still bound, per cent of control [2]: 100%
kinase still bound, per cent of control (CAMK2D (human)): 100%
kinase still bound, per cent of control (MAPK11 (human)): 100%
kinase still bound, per cent of control (PDGFRA (human)): 100%
kinase still bound, per cent of control (WEE1 (human)): 100%
kinase still bound, per cent of control (RPS6KA3 KD1 (human)): 100%
kinase still bound, per cent of control (EPHA4 (human)): 97%
kinase still bound, per cent of control (PRKCE (human)): 100%
kinase still bound, per cent of control (LATS2 (human)): 100%
kinase still bound, per cent of control (FER (human)): 72%
kinase still bound, per cent of control (FYN (human)): 95%
kinase still bound, per cent of control (ZAP70 (human)): 100%
kinase still bound, per cent of control (MAPKAPK5 (human)): 63%
kinase still bound, per cent of control (MAP3K9 (human)): 100%
kinase still bound, per cent of control [3]: 99%
kinase still bound, per cent of control (CAMK1 (human)): 100%
kinase still bound, per cent of control (BLK (human)): 100%
kinase still bound, per cent of control (PDPK1 (human)): 100%
kinase still bound, per cent of control (SLK (human)): 100%
kinase still bound, per cent of control (PRKX (human)): 86%
kinase still bound, per cent of control (CDC42BPA (human)): 100%
kinase still bound, per cent of control (CDK11A (human)): 100%
kinase still bound, per cent of control (MAP2K2 (human)): 90%
kinase still bound, per cent of control (AXL (human)): 100%
kinase still bound, per cent of control (FGFR1 (human)): 100%
kinase still bound, per cent of control (TNNI3K (human)): 100%
kinase still bound, per cent of control (EPHB4 (human)): 97%
kinase still bound, per cent of control [4]: 100%
kinase still bound, per cent of control (ACVR1B (human)): 100%
kinase still bound, per cent of control (MARK2 (human)): 100%
kinase still bound, per cent of control (MAPKAPK2 (human)): 100%
kinase still bound, per cent of control (CDK8 (human)): 100%
kinase still bound, per cent of control (MAPK9 (human)): 100%
kinase still bound, per cent of control [5]: 100%
kinase still bound, per cent of control (RPS6KA1 KD1 (human)): 93%
kinase still bound, per cent of control (PLK1 (human)): 100%
kinase still bound, per cent of control [1]: 100%
kinase still bound, per cent of control (CDK9 (human)): 100%
kinase still bound, per cent of control (PRKAA1 (human)): 100%

CS(=O)(=O)Nc1ccc(-c2cc(/C=C3\SC(=N)NC3=O)c[nH]c2=O)cc1
kinase still bound, per cent of control (PDGFRA (human)): 8%

O=C1NC(=O)/C(=C/c2c[nH]c(=O)c(-c3ccc(N4CCNCC4)nc3)c2)S1
kinase still bound, per cent of control (CSK (human)): 80%
kinase still bound, per cent of control (ADCK4 (human)): 80%
kinase still bound, per cent of control (PIK3C2B (human)): 90%
kinase still bound, per cent of control [2]: 70%
kinase still bound, per cent of control (CAMK2D (human)): 59%
kinase still bound, per cent of control (MAPK11 (human)): 82%
kinase still bound, per cent of control (PDGFRA (human)): 99%
kinase still bound, per cent of control (WEE1 (human)): 91%
kinase still bound, per cent of control (RPS6KA3 KD1 (human)): 42%
kinase still bound, per cent of control (EPHA4 (human)): 99%
kinase still bound, per cent of control (PRKCE (human)): 56%
kinase still bound, per cent of control (LATS2 (human)): 100%
kinase still bound, per cent of control (FER (human)): 100%
kinase still bound, per cent of control (FYN (human)): 92%
kinase still bound, per cent of control (ZAP70 (human)): 61%
kinase still bound, per cent of control (MAPKAPK5 (human)): 84%
kinase still bound, per cent of control (MAP3K9 (human)): 94%
kinase still bound, per cent of control [3]: 37%
kinase still bound, per cent of control (CAMK1 (human)): 68%
kinase still bound, per cent of control (BLK (human)): 100%
kinase still bound, per cent of control (PDPK1 (human)): 100%
kinase still bound, per cent of control (SLK (human)): 29%
kinase still bound, per cent of control (PRKX (human)): 100%
kinase still bound, per cent of control (CDC42BPA (human)): 73%
kinase still bound, per cent of control (CDK11A (human)): 63%
kinase still bound, per cent of control (MAP2K2 (human)): 15%
kinase still bound, per cent of control (AXL (human)): 24%
kinase still bound, per cent of control (FGFR1 (human)): 100%
kinase still bound, per cent of control (TNNI3K (human)): 96%
kinase still bound, per cent of control (EPHB4 (human)): 100%
kinase still bound, per cent of control [4]: 95%
kinase still bound, per cent of control (ACVR1B (human)): 80%
kinase still bound, per cent of control (MARK2 (human)): 60%
kinase still bound, per cent of control (MAPKAPK2 (human)): 100%
kinase still bound, per cent of control (CDK8 (human)): 44%
kinase still bound, per cent of control (MAPK9 (human)): 100%
kinase still bound, per cent of control [5]: 88%
kinase still bound, per cent of control (RPS6KA1 KD1 (human)): 71%
kinase still bound, per cent of control (PLK1 (human)): 46%
kinase still bound, per cent of control [1]: 49%
kinase still bound, per cent of control (CDK9 (human)): 100%
kinase still bound, per cent of control (PRKAA1 (human)): 59%

CN1C(=O)[C@H]2CCC[C@H]2N(C2CCCC2)c2nc(Nc3ccc(C(N)=O)cc3)ncc21
kinase still bound, per cent of control (SLK (human)): 3.4%
kinase still bound, per cent of control (AXL (human)): 13%
kinase still bound, per cent of control (RPS6KA1 KD1 (human)): 11%
kinase still bound, per cent of control (PLK1 (human)): 0.65%
kinase still bound, per cent of control (PRKAA1 (human)): 31%

O=C1NC(=S)S/C1=C\c1ccc(-c2cncc3ccccc23)o1
kinase still bound, per cent of control (CSK (human)): 33%
kinase still bound, per cent of control (CAMK2D (human)): 32%
kinase still bound, per cent of control (CAMK1 (human)): 27%
kinase still bound, per cent of control (CDK11A (human)): 2%
kinase still bound, per cent of control (ACVR1B (human)): 32%
kinase still bound, per cent of control (MARK2 (human)): 23%
kinase still bound, per cent of control (CDK8 (human)): 10%
kinase still bound, per cent of control (MAPK9 (human)): 20%

N=C1NC(=O)/C(=C/c2ccc(-c3ccc(C(N)=O)cc3O)o2)S1
kinase still bound, per cent of control (PIK3C2B (human)): 28%
kinase still bound, per cent of control (CAMK2D (human)): 34%
kinase still bound, per cent of control (ZAP70 (human)): 25%
kinase still bound, per cent of control (MAPKAPK2 (human)): 25%

N=C1NC(=O)/C(=C/c2ccc(-c3ccccc3O)o2)S1
kinase still bound, per cent of control (PIK3C2B (human)): 31%
kinase still bound, per cent of control [3]: 21%

N=C1NC(=O)/C(=C/c2ccc(-c3ccc(F)cc3O)o2)S1
kinase still bound, per cent of control [3]: 24%
kinase still bound, per cent of control (PRKAA1 (human)): 32%

CS(=O)(=O)Nc1ccc(-c2cncc(/C=C3\SC(=N)NC3=O)c2)cc1
kinase still bound, per cent of control [3]: 22%
kinase still bound, per cent of control (SLK (human)): 2.8%
kinase still bound, per cent of control (ACVR1B (human)): 29%

N=C1NC(=O)/C(=C/c2ccc(-c3cncc4ccccc34)o2)S1
kinase still bound, per cent of control (CSK (human)): 12%
kinase still bound, per cent of control [2]: 23%
kinase still bound, per cent of control (CAMK2D (human)): 7.6%
kinase still bound, per cent of control (PDGFRA (human)): 26%
kinase still bound, per cent of control (MAPKAPK5 (human)): 12%
kinase still bound, per cent of control (MAP3K9 (human)): 28%
kinase still bound, per cent of control (CAMK1 (human)): 8.4%
kinase still bound, per cent of control (CDK11A (human)): 0.45%
kinase still bound, per cent of control (CDK8 (human)): 11%
kinase still bound, per cent of control (MAPK9 (human)): 14%
kinase still bound, per cent of control [5]: 16%
kinase still bound, per cent of control (RPS6KA1 KD1 (human)): 30%
kinase still bound, per cent of control (PRKAA1 (human)): 24%

CSC1=NC(=O)/C(=C/c2c[nH]c(=O)c(-c3ccc(NS(C)(=O)=O)cc3)c2)S1
kinase still bound, per cent of control (PLK1 (human)): 17%
